From US20130203823A1, “STABLE TOPICAL COMPOSITIONS FOR 1,2,4-THIADIAZOLE DERIVATIVES” (JANSSEN PHARMACEUTICAL, INC., priority 2009, published 2013)
One block for each compound: values may come before it.

How the values were obtained:
[1] = Stability of the compound in the composition on storage, concentration by HPLC versus initial concentration; assay type: physicochemical
Description: The compositions of the present invention have desired and improved properties, including the extended shelf-life or stability and the suitable commercial production. As used herein, the terms ‘stable composition’, ‘stable formulation’, ‘composition with extended shelf-life’ or variants thereof refer to the compound of Formula I, II, or III (and most preferably Compounds Ia, IIa, and IIIa) in the composition is stable. The stability or shelf-life of the compound may be determined by measuring the concentration and any degradation product of the compound of Formula I, II or III in the compositions using high performance liquid chromatography (HPLC). As commonly referred in the art, the compound is considered to be stable or being stabilized when the concentration of the compound retains at least about 90% to at least about 110%, preferably at least about 95% to at least about 105%, of the original concentration of the compound.
By way of example, the stability of the compound of Formula I, II, or III is determined using HPLC equipped with a temperature-controlled autosampler, a thermostatic column compartment, and an UV detector at about 326 nm (Agilent 1100, Waters alliance HPLC). A Zorbax C18 column is used for analyzing Compound Ia and a YMC-Pack Hydrosphere C18 column is used for analyzing Compound IIa. A binary linear gradient of mobile phases A and B is used. The mobile phase A may consist of about 0.2% trifluroacetic acid in water and the mobile phase B may consist of about 0.2% trifluroacetic acid in methanol. The gradient conditions are provided below.
The stability of Compound Ia was examined by measuring the concentration of Compound Ia using HPLC. The concentration of the compound in the composition stored at various temperatures for a period of time was compared to the initial concentration of the compound prior to storage.

[2] = In vitro skin permeation study, cadaver skin finite dose technique, Franz diffusion cell; assay type: in vitro ADME, human
Description: The cadaver skin finite dose technique was used for the studies. Split thickness human cadaver trunk skin was obtained from skin bank and stored in a water-impermeable plastic bag at about −70° C. Prior to each experiment, skin was thawed in water bath at about 37° C., then cut into sections large enough to fit on the Franz diffusion cell. The diffusion cells were mounted in a diffusion apparatus and filled with a receptor solution of ethanol/water/formic acid (25/75/0.3), which was stirred at about 600 RPM and maintained at about 32° C. The skin was mounted onto the diffusion cell, where the stratum corneum side faced the donor compartment and the dermal side faced the receiving compartment. About 10 μl per cm^2 of the composition was applied to the skin using a pipette. The dose was spread throughout the skin surface with a Teflon tip of the pipette. After about 4, 8, 12 and 24 hrs, the receptor solution was removed and replaced with fresh receptor solution. An aliquot was taken for analysis. The skin surface was washed with about 0.5 ml of a solvent mixture of methanol/water/formic acid (90/10/0.3). The solvent mixture was filtered and an aliquot was taken for analysis. Subsequently, the dermis and epidermis were separated and Compound IIa was extracted using the solvent mixture. The solvent mixture was filtered and an aliquot was taken for analysis. Samples were analyzed using HPLC.

[3] = aqueous gel formulation B, 0.30% w/w Compound IIa
[4] = aqueous gel formulation B, 0.60% w/w Compound IIa
[5] = aqueous gel formulation B, 1.2% w/w Compound IIa
[6] = cream composition E (as titled), 0.30% w/w Compound IIa
[7] = cream composition E (as titled), 0.60% w/w Compound IIa
[8] = cream composition E (as titled), 1.2% w/w Compound IIa
[9] = cream composition E (as titled), 2.4% w/w Compound IIa

Stability in the composition (in words) ([1]; aqueous gel composition A, 0.3% Compound Ia, ambient condition): stable at ambient condition
Time for which the compound was stable ([1]; emulsion composition F, refrigerated condition): at least 4 weeks
Compound: COc1ccccc1-c1nc(Nc2ccccc2)s[n+]1-c1ccccc1OC.[Br-] [Compound Ia, 2-(2-methoxyphenyl)-3-(2-methoxyphenyl)-5-phenylamino-[1,2,4]-thiadiazol-2-ium]

Total amount permeated into Dermis [2, 3]: 0.004 µg
Total amount permeated into Epidermis [2, 3]: 0.361 µg
Total amount permeated into Receptor solution [2, 3]: 0.020 µg
Total amount permeated into Dermis [2, 4]: 0.007 µg
Total amount permeated into Epidermis [2, 4]: 0.164 µg
Total amount permeated into Receptor solution [2, 4]: 0.045 µg
Total amount permeated into Dermis [2, 5]: 0.007 µg
Total amount permeated into Epidermis [2, 5]: 0.537 µg
Total amount permeated into Receptor solution [2, 5]: 0.074 µg
Total penetration amount in epidermis, dermis and receptor solution versus concentration (in words) ([2]; as the concentration of Compound IIa increased in the formulations): increased
Total amount permeated into Dermis [2, 6]: 0.003 µg
Total amount permeated into Epidermis [2, 6]: 0.279 µg
Total amount permeated into Receptor solution [2, 6]: 0.015 µg
Total amount permeated into Dermis [2, 7]: 0.015 µg
Total amount permeated into Epidermis [2, 7]: 0.357 µg
Total amount permeated into Receptor solution [2, 7]: 0.025 µg
Total amount permeated into Dermis [2, 8]: 0.014 µg
Total amount permeated into Epidermis [2, 8]: 0.428 µg
Total amount permeated into Receptor solution [2, 8]: 0.025 µg
Total amount permeated into Dermis [2, 9]: 0.028 µg
Total amount permeated into Epidermis [2, 9]: 0.681 µg
Total amount permeated into Receptor solution [2, 9]: 0.070 µg
% of Initial Concentration ([1]; aqueous gel composition B, 0.3% Compound IIa, 12 months, 5° C.): 99.47%
% of Initial Concentration ([1]; aqueous gel composition B, 0.3% Compound IIa, 12 months, 25° C.): 95.60%
% of Initial Concentration ([1]; aqueous gel composition B, 0.3% Compound IIa, 24 months, 5° C.): 97.92%
% of Initial Concentration ([1]; aqueous gel composition B, 0.3% Compound IIa, 24 months, 25° C.): 89.49%
% of Initial Concentration ([1]; aqueous gel composition B, 0.6% Compound IIa, 12 months, 25° C.): 93.90%
% of Initial Concentration ([1]; aqueous gel composition B, 0.6% Compound IIa, 24 months, 5° C.): 97.02%
% of Initial Concentration ([1]; aqueous gel composition B, 0.6% Compound IIa, 24 months, 25° C.): 92.69%
% of Initial Concentration ([1]; aqueous gel composition B, 1.2% Compound IIa, 12 months, 25° C.): 95.49%
% of Initial Concentration ([1]; aqueous gel composition B, 1.2% Compound IIa, 24 months, 5° C.): 97.56%
% of Initial Concentration ([1]; aqueous gel composition B, 1.2% Compound IIa, 24 months, 25° C.): 93.87%
% of Initial Concentration ([1]; aqueous gel composition B, 1.5% Compound IIa, 12 months, 5° C.): 100.68%
% of Initial Concentration ([1]; aqueous gel composition B, 1.5% Compound IIa, 12 months, 25° C.): 99.03%
% of Initial Concentration ([1]; aqueous gel composition B, 2.4% Compound IIa, 12 months, 25° C.): 101.30%
Stability in the composition (in words) ([1]; aqueous gel composition B, various amounts of Compound IIa, ambient condition): stable at ambient condition
Time for which the compound was stable ([1]; cream composition C (so in the source), ambient condition): at least 6 months
Time for which the compound was stable ([1]; cream composition C (so in the source), refrigerated condition): at least 18 months
% of Initial Concentration ([1]; cream composition D, 1.2% Compound IIa, 6 months, 5° C.): 100.0%
% of Initial Concentration ([1]; cream composition D, 1.2% Compound IIa, 6 months, 25° C.): 94.1%
% of Initial Concentration ([1]; cream composition D, 1.2% Compound IIa, 12 months, 5° C.): 98.3%
% of Initial Concentration ([1]; cream composition D, 1.2% Compound IIa, 18 months, 5° C.): 100.8%
% of Initial Concentration ([1]; emulsion composition E, 3 months, 5° C.): 101.40%
% of Initial Concentration ([1]; emulsion composition E, 3 months, 25° C.): 98.01%
% of Initial Concentration ([1]; emulsion composition E, 6 months, 5° C.): 100.11%
% of Initial Concentration ([1]; emulsion composition E, 6 months, 25° C.): 95.61%
% of Initial Concentration ([1]; emulsion composition E, 9 months, 5° C.): 100.20%
% of Initial Concentration ([1]; emulsion composition E, 13 months, 5° C.): 100.54%
Time for which the compound was stable ([1]; emulsion composition E, refrigerated condition): at least 13 months
Compound: COc1ccccc1-c1nc(=Nc2ccccc2)sn1-c1ccccc1OC [Compound IIa, [2-(2-methoxyphenyl)-3-(2-methoxyphenyl)-2H-[1,2,4]-thiadiazol-5-ylidene]-phenylamine]
Skin penetration (in words) ([2]; aqueous gel formulation B): able to penetrate into epidermis, dermis and receptor solution
Skin penetration (in words) ([2]; cream composition D): able to penetrate into epidermis, dermis and receptor solution
